{"source": "patent US20150045313A1", "about": "“Ectoparasiticidal Methods and Formulations” (Eli Lilly and Company, priority 2009, published 2015)", "key": {"[1]": {"tested_on": "Boophilus annulatus", "assay": "Whole-body spray treatment of Boophilus annulatus infestations on cattle", "assay_type": "in vivo", "description": "C) Efficacy Testing and comparison of topically applied spinetoram with spinosad for the treatment of Boophilus annulatus infestations on cattle. Technical spinetoram and technical spinosad both formulated as 25 g/L suspension concentrate formulations similar to commercial Elector. Stability assays (HPLC and LPT bioassays) were conducted to confirm potency over extended periods of time (5 weeks) at cool and shelf-temperatures. Cattle were pre-infested 21 d prior to treatment with larval-stage B. annulatus ticks resulting the presence of very high numbers of all three life-stages of this tick at the time of treatment. Test materials were diluted to 0.025% (250 ppm) and applied to cattle as whole-body topical sprays in a volume of 10 L per animal. There were a total of six animals per treatment group (n=6). Animals were housed in covered stalls under ambient conditions of temperature and humidity. Engorged, detached adult female ticks were retrieved from animals in each stall on a daily basis. Egg masses were weighed and eggs were set for hatching to assess viability. Efficacy was measured in terms of total numbers of female ticks per animal and index of fecundity (IF).\nMeans were tested by General Linear Model (GLM), 1-way ANOVA. Differences (P<0.05) among means were separated using Tukey's all pairwise comparison. Means within the same column followed by different letters were significant at the P<0.05 level.\nMeans were tested by General Linear Model (GLM), 2-way ANOVA with parasitic life stage and treatment group as main effects. NS denotes not significant."}, "[2]": {"tested_on": "ticks (Amblyomma americanum)", "assay": "Surrogate Animal bioassay, topical exposure on rats", "assay_type": "in vivo", "conditions": "formulated in ethanol, 48 h", "description": "Surrogate Animal bioassay/ticks(Amblyomma americanum) and fleas:\nTopical exposure—Test materials are formulated in ethanol or acetone at the desired testing concentrations, typically 6% active ingredient or lower. Either doubling or log-dilutions are performed in ethanol to obtain additional testing concentrations (3.0, 0.3, 0.03, and 0.003 mg/cm^3). A tick containment unit is affixed to the back or adult male or female rats, and 0.05 ml of formulated test material is applied topically to the surface area inside of the containment unit. Materials are allowed to dry overnight, after which time 10 unfed dog tick nymphs are placed into each containment unit. A total of 5 rats are normally used for each test concentration. Ticks are allowed to attach and feed on treated animals for 48 h, after which time containment units are opened and live/dead ticks are enumerated. Rats may be co-infested with adult cat fleas at the time of tick infestation to obtain data for topical insecticide activity using the same animal."}, "[3]": {"tested_on": "Horn Fly (Haematobia irritans)", "assay": "Cattle Ectoparasiticide Test, pour-on or spray against horn flies", "assay_type": "in vivo", "from_the_text": "Cattle Ectoparasiticide Test (CET)/Horn Fly (Haematobia irritans) and/or Adult Tick (Amblyomma americanum): Cattle are housed in environmentally controlled rooms, 1 or 2 animals per room that have screened doors and ventilation system to prevent fly escape. Following treatment application, a defined number of horn flies are released into each room (typically at or above economic threshold of 200 flies per animal). After defined periods of time, the numbers of live horn flies remaining on animals are enumerated. If a combination horn fly and tick experiment is conducted, adult lone star ticks are placed into surgical stockinette enclosures that are glued onto the backs of cattle. Cattle are restrained in a modified head gate within environmentally controlled rooms. Horn flies may be enumerated, followed by determination of the numbers of dead ticks inside of containment units. Typically there are 2 containment units per animal and at least 2 animals per treatment group.\nB) Therapeutic and residual efficacy testing of spinetoram and Elector against horn flies when applied topically to cattle as a pour-on or topical spray. Spinetoram (120 g/L), Elector (25 g/L spinosad) as described previously were used. Test material was applied to animals as either a whole-body topical spray or neat pour-on. Spinetoram was diluted in water to 25 g/L prior to application as a pour-on. Both materials were diluted in water to 0.04% (400 ppm) for application as a whole-body spray in a total volume of 1 L per animal. There were a total of six animals per treatment group (n=6) plus six negative control animals. Beef and dairy cattle were used. Following treatments, horn flies were released into rooms harboring cattle. Live flies were enumerated 24 h following challenges."}, "[4]": {"tested_on": "House Fly", "assay": "Adult House Fly Assay (AhsF)", "parameters": "species or system Musca domestica", "conditions": "House Fly, 24 h", "description": "Adult Stable or House Fly Assay (ASF, AhsF). This assay is conducted essentially as described in White, W. H., S. M. Bauer, X. Zhao et al., Comparison of in vitro and in vivo ectoparasiticide activity of an experimental benzimidazole-carbamate with permethrin and amitraz, J. Med. Entomol. 42, 207-211 (2005); and White, W. H., C. M. McCoy, J. A. Meyer et al., Knockdown and mortality comparisons among spinosad-, imidacloprid-, and methomyl-containing baits against susceptible Musca domestica (Diptera: Muscidae) under laboratory conditions, J. Econ. Entomol. 100, 155-163 (2007).\nTest material is formulated in DMSO at 10 mM. Doubling dilutions in like solvent are made to yield 10 testing levels. Materials are diluted in either bovine serum (stable flies) or 5% glucose solution (house flies) to obtain desired exposure concentrations from 200-0.39 μM. Approximately 3 ml of diluted test material is placed into a test tube (n=3 per test level) and a dental wick is used to absorb fluid. One dental wick is placed into a small weigh boat inside of a 100 mm Petri dish. Approximately 10 mixed-sex adult flies are anesthetized using carbon dioxide and counted into each dish. Dishes are incubated at 27° C. and 50-70% relative humidity. Flies recover from anesthesia and feed on compound-soaked dental wicks. After 24 h, live/dead flies are enumerated. Nonlinear regression is used to model dose-mortality relationship and obtain relative potency (LD50) data compared to contemporaneous controls (solvent-only or permethrin)."}, "[5]": {"tested_on": "Lone Star Tick", "assay": "Larval Packet Test (LPT)", "description": "Larval Packet Test (LPT)/Ticks: Test material is formulated in a 2:1 ratio of trichloroethylene: olive oil. Tissue biopsy bags are saturated with 1 ml of formulated material (n=3 per test level), and bags are allowed to dry under a fume hood for at least 2 hours. Approximately 50-100 larval-stage ticks are placed into each bag, and the bag is sealed using a plastic dialysis clip and incubated for 24 h at 27° C. and 95% relative humidity. Bags are then opened, and live/dead ticks are enumerated. Nonlinear regression is used to model dose-mortality relationship and obtain relative potency (LD50) data compared to contemporaneous controls (solvent-only or fipronil)."}, "[6]": {"conditions": "cattle, 0.025% AI whole-body spray, mean ± SD"}}, "data": [{"substance": "Spinetoram", "values": [{"measurement": "initial/knockdown activity against B. annulatus", "setting": "[1]; cattle, 0.025% AI", "value": "poor"}, {"measurement": "Number ♀♀ Ticks per Calf", "setting": "[1]; [6]", "value": "2405 ± 306", "unit": "a"}, {"measurement": "Total Index of Fecundity (IF)", "setting": "[1]; [6]", "value": "287 ± 35.4", "unit": "a"}, {"measurement": "Percentage Control of the IF", "setting": "[1]; cattle, 0.025% AI whole-body spray, therapeutic efficacy", "value": "28.0 ± 8.9", "unit": "a %"}, {"measurement": "Percentage control, Adult", "setting": "[1]; parasitic life stage adult, 0.025% AI", "value": "17.2 ± 25.0", "unit": "%"}, {"measurement": "Percentage control, Larval", "setting": "[1]; parasitic life stage larva, 0.025% AI", "value": "38.6 ± 10.6", "unit": "%"}, {"measurement": "Percentage control, Nymph", "setting": "[1]; parasitic life stage nymph, 0.025% AI", "value": "31.6 ± 20.8", "unit": "%"}, {"measurement": "residual efficacy, mean percentage control of the IF, Week 1", "setting": "[1]; ticks infested as larvae Week 1 after treatment", "value": "95.3 ± 3.3", "unit": "%"}, {"measurement": "residual efficacy, mean percentage control of the IF, Week 2", "setting": "[1]; ticks infested as larvae Week 2 after treatment", "value": "96.7 ± 2.3", "unit": "%"}, {"measurement": "residual efficacy, mean percentage control of the IF, Week 3", "setting": "[1]; ticks infested as larvae Week 3 after treatment", "value": "89.3 ± 8.0", "unit": "%"}, {"measurement": "residual efficacy, mean percentage control of the IF, Week 4", "setting": "[1]; ticks infested as larvae Week 4 after treatment", "value": "80.4 ± 11.5", "unit": "%"}, {"measurement": "topical activity against tick nymphs compared to spinosad", "setting": "[2]", "value": "equivalent to that of spinosad"}, {"measurement": "GM percent horn fly reduction after 24 hrs, Pour-on", "setting": "[3]; cattle, pour-on 2 mg/kg, Initial", "value": 100, "unit": "%"}, {"measurement": "GM percent horn fly reduction after 24 hrs, Spray", "setting": "[3]; cattle, whole-body spray 0.04% AI, Initial", "value": 99.9, "unit": "%"}, {"measurement": "therapeutic efficacy compared with Elector", "setting": "[3]; horn fly infested cattle, pour-on (2 mg/kg) or whole-body spray (0.04% AI)", "value": "equivalent therapeutic efficacy"}, {"measurement": "Spinetoram: Spinosad Potency Ratio", "setting": "[4]", "value": 5.5}, {"measurement": "EC50", "setting": "[4]; read-out: Potency (24 h EC50 μM)", "value": 2.18, "unit": "µM"}, {"measurement": "Spinetoram/Spinosad Potency Ratio", "setting": "[5]; Lone Star Tick", "value": 0.4}, {"measurement": "Potency (EC50)", "setting": "[5]; Lone Star Tick larvae, 24 h", "value": 531.6, "unit": "ppm"}]}]}
